Results from US6280715A, “Cosmetic composition useful notably for the skin whitening and melanogenesis inhibiting agent containing such a cosmetic composition” (Exsymol S.A.M., priority 1997, dated 2001).

Legend:
[1] = system: tyrosinase; assay: in vitro inhibition of melanin formation from L-DOPA by tyrosinase; format: biochemical; conditions: product diluted at 1.10^-3 mole.l^-1 (2 ml in mixture), pH 6.8, 4 hours at 37° C., optical density at 400 nm
Experimental: The reference used is the ascorbic acid in solution at 0.3.10^-3 mole l^-1.
2 ml of a L-DOPA solution, 1.25 ml of tyrosinase (2500 units/ml), 2 ml of product (Ia) diluted at 1.10^-3 mole.l^-1 are mixed together, and the mixture is completed with 20 ml of phosphate buffer (NaH2 PO4 0.1 mole l^-1 +Na2 HPO4 0.1 mole.l^-1, pH=6.8). The mixture is stirred for 4 hours at 37° C., then allowed to cool at room temperature for one night, shielded from light.
1 ml of concentrated hydrochloric acid is added and the mixture is centrifuged at 4000 rpm for 5 min. The pellet is washed with 10 ml of distilled water then centrifuged a second time. A reflux is made on the pellet with concentrated acid HCL 6N for 48 hours. The dried pellet is dissolved in 10 ml of toluene, exposed to ultrasounds for 2 min, put 2 hours at 37° C. then exposed to ultrasounds again for 5 min. The optical density is measured at 400 nm.

[2] = system: S91 melanoma cells; assay: melanin content of UV-irradiated S91 melanoma cell cultures; format: cell-based; conditions: Mus musculus, S91, light or radiation study
Experimental: The inhibiting activity on melanin, of the 1-amino-ethylphosphinic acid (Ia) is studied on S91 melanoma cells cultures.
The model of study was finalized by Gilchrest (1987).
The cultured cells are purchased from a Cloudman melanom.
As ordinary melanocytes, they respond to UV stimuli by an increase of melanogenesis.
The melanogenesis evaluation is made through the melanin content and the activity of enzymes involved in this metabolism: tyrosinase and dopa-tautomerase.
S91 cells are plated in P60 dishes at a density of […] per dish and maintained in Dubelcco's modified Eagle's medium and provided with 10% of calf serum. When the cells have reached about 50% of confluence, they are exposed to a UV irradiation of 10 mJ/cm^2 at 285±5 nm. During irradiation, the medium is replaced with a salin phosphate solution (PBS) to eliminate the forming of toxical derivatives. Immediately after irradiation, the PBS is replaced with fresh medium/7% of calf serum with or without the active agent. After a 16 hours incubation, the medium is replaced with ordinary medium with or without the active agent. […]
The melanin content is then determined: melanocytes are trypsinized, twice washed with PBS and dissolved in 0.8 ml of NaOH 1N, when strongly vortexed for 10-15 min and heated at 60-80° C. The melanin concentration is determined based on the absorbance at 475 nm.

| Structure (SMILES) | percentage of inhibition of melanin [1] [%] | inhibition at 3300 µM ([2]; kojic acid at 3.3.10^-3 mole.l^-1, UV irradiation 10 mJ/cm^2, absorbance at 475 nm, read-out: decrease of melanin content in the cells) [%] | inhibition at 500 µM ([2]; read-out: decrease of melanin rate in the cells) [%] |
| --- | --- | --- | --- |
| CC(C)CC(N)[PH](=O)O (stereo not shown) [(Ib), 1-amino-3-methylbutylphosphinic acid] | 44 | – | – |
| O=c1cc(CO)occ1O [kojic acid, reference compound] | – | 45.2 | – |
| CC(N)[PH](=O)O (stereo not shown) [(Ia), 1-amino-ethylphosphinic acid] | 46 | – | 47.2 |
